In patent US11026942B2, “Agent for preventing and/or treating Alzheimer's disease” (KYOTO UNIVERSITY, priority 2015, dated 2021):

Legend:
Type in all cases: cell-based, human
sAPPα = sAPPα in FAD1 iPS cell-derived nerve cells (secondary screening); design: scale not given here; conditions: secondary screening, FAD1 iPS cell-derived nerve cells
Description: (§1) To further study reproducibility of the candidate drugs obtained by the primary screening, secondary screening was conducted. In addition to Aβ40, Aβ42, Aβ42/40 ratio, Aβ38, Aβ43, sAPPα, sAPPβ were also studied and each numerical value was obtained.

Aβ43 = Aβ43 in FAD1 iPS cell-derived nerve cells (secondary screening); design: scale not given here
Description: as §1

Aβ42/40 ratio = Aβ42/40 ratio in FAD1 iPS cell-derived nerve cells (primary/secondary screening, dose dependency); conditions: secondary screening
Excerpt: (§2) To perform induction from iPS cells to the cerebral cortex nerve early and with high reproducibility, iPS cells introduced with human Neurogenin 2 gene (NGN2) linked to doxycycline-inducible promoter by using PiggyBac were used (FIG. 1a, FIG. 1b, FIG. 4a and FIG. 4b). IPS cells prepared from 4 patients with familial Alzheimer's disease (FAD), 2 patients with sporadic Alzheimer's disease (SAD) and 4 healthy individuals (HC) were used. The iPS cells were established by the method described in Okita K et al., Nature.
(§3) Structural formulas (those in the form of salt or halide are also described as free form) and the general names of the candidate compounds are shown in Table 1.
as §1

Aβ38 = Aβ38 in FAD1 iPS cell-derived nerve cells (secondary screening); design: scale not given here
Description: as §1

sAPPβ = sAPPβ in FAD1 iPS cell-derived nerve cells (secondary screening); design: sAPPβ: scale not given here; conditions: secondary screening, FAD1 iPS cell-derived nerve cells
Description: as §1

Aβ42 = Aβ42 in FAD1 iPS cell-derived nerve cells (primary/secondary screening, dose dependency); conditions: secondary screening, FAD1 iPS cell-derived nerve cells, numerical value (Aβ change rate)
Excerpt: as §2, §3, §1

| Compound | sAPPα (sAPPα) | Aβ43 (Aβ43) | Ratio Aβ42/40 (Aβ42/40 ratio) | Aβ38 (Aβ38) | sAPPβ (sAPPβ) | Aβ42 (Aβ42) |
| --- | --- | --- | --- | --- | --- | --- |
| CC(=O)Nc1ccc(OC(C)=O)cc1 [compound 68, DIACETAMATE] | 0.98 | 0.97 | 0.76 | 1.08 | 0.86 | 0.86 |
| Nc1nc(/C(=C/CC(=O)O)C(=O)N[C@@H]2C(=O)N3C(C(=O)O)=CCS[C@H]23)cs1 [compound 62, CEFTIBUTEN] | 0.76 | 0.83 | 0.87 | 1.01 | 0.55 | 0.79 |
| CN(C)CCc1c[nH]c2ccc(Cn3cncn3)cc12 [compound 80, RIZATRIPTAN] | 0.96 | 1.07 | 0.85 | 1.2 | 1.08 | 0.96 |
| CC1(C)C(C=C(Cl)Cl)C1C(=O)OC(C#N)c1cccc(Oc2ccccc2)c1 (stereo not drawn) [compound 38, CYPERMETHRIN] | 0.85 | 0.95 | 0.87 | 0.97 | 0.88 | 0.83 |
| CCN(CC)C(=S)SSC(=S)N(CC)CC [compound 112] | 0.78 | 0.98 | 0.97 | 1.1 | 0.89 | 0.91 |
| c1ccc2c(c1)OCC(C1=NCCN1)O2 (stereo not drawn) [compound 43, IDAZOXAN] | 0.84 | 0.97 | 0.99 | 1.03 | 0.81 | 0.93 |
| CNCC[C@@H](Oc1ccccc1C)c1ccccc1 [compound 4, ATOMOXETINE] | 0.78 | 0.89 | 0.94 | 1.1 | 0.81 | 0.95 |
| Cc1cc2cc3c(C)cc(=O)oc3c(C)c2o1 [compound 91, TRIOXSALEN] | 0.82 | 1.01 | 0.95 | 0.97 | 1.02 | 0.84 |
| CN(C)CCN(Cc1ccc(Cl)cc1)c1ccccn1 [compound 129, CHLOROPYRAMINE] | 0.87 | 0.89 | 0.81 | 0.96 | 0.86 | 0.83 |
| O=C(O)c1cccnc1Nc1cccc(C(F)(F)F)c1 [compound 37, NIFLUMIC ACID] | 0.8 | 0.85 | 0.86 | 0.97 | 0.92 | 0.77 |
| Cc1cc2c(cc1S(N)(=O)=O)S(=O)(=O)CCC2 [compound 119] | 1.07 | 1.16 | 0.78 | 1.14 | 0.87 | 0.74 |
| CCOC(=O)OC(C)OC(=O)[C@@H]1N2C(=O)[C@@H](NC(=O)[C@H](N)c3ccccc3)[C@H]2SC1(C)C (stereo partly drawn) [compound 59, BACAMPICILLIN] | 1.11 | 1.44 | 1.15 | 1.32 | 1.23 | 1.09 |
| CN1CCN(C(c2ccccc2)c2ccccc2)CC1 [compound 12, CYCLIZINE] | 1.03 | 1.06 | 0.95 | 1.23 | 1.3 | 1.04 |
| C[C@@H]1O[C@@H](OC[C@H]2O[C@@H](Oc3c(-c4ccc(OCCO)c(OCCO)c4)oc4cc(OCCO)cc(O)c4c3=O)[C@H](O)[C@@H](O)[C@@H]2O)[C@H](O)[C@H](O)[C@H]1O [compound 110, TROXERUTIN] | 0.74 | 0.95 | 0.93 | 0.97 | 0.51 | 0.88 |
| CC(N=C(NC#N)Nc1ccncc1)C(C)(C)C (stereo not drawn) [compound 74] | 0.83 | 0.79 | 0.84 | 0.92 | 0.96 | 0.72 |
| O=C(O)[C@H]1/C(=C/CO)O[C@@H]2CC(=O)N21 [compound 118, CLAVULANIC ACID] | 0.88 | 0.75 | 0.88 | 1.01 | 1 | 0.84 |
| COc1ccc(CN2CCNCC2)c(OC)c1OC [compound 84, TRIMETAZIDINE] | 1.15 | 1.09 | 0.93 | 1.04 | 1.04 | 1.01 |

| Compound | sAPPα (sAPPα) | Aβ43 (Aβ43) | Ratio Aβ42/40 (Aβ42/40 ratio) | Aβ38 (Aβ38) | sAPPβ (sAPPβ) | Aβ42 (Aβ42) |
| --- | --- | --- | --- | --- | --- | --- |
| COc1ccc(CCN(C)CCCC(C#N)(c2ccc(OC)c(OC)c2)C(C)C)cc1OC (stereo not drawn) [compound 75] | 0.81 | 0.75 | 0.91 | 0.89 | 0.71 | 0.74 |
| OC1CCCCC1N1CCC(c2ccccc2)CC1 (stereo not drawn) [compound 22, VESAMICOL] | 0.89 | 0.87 | 0.97 | 1 | 0.74 | 0.9 |
| c1cnc(N2CCN(Cc3ccc4c(c3)OCO4)CC2)nc1 [compound 36, PIRIBEDIL] | 0.92 | 1.09 | 0.83 | 1.11 | 0.82 | 0.87 |
| CC1(C)O[C@@H]2[C@@H](CO[C@@]3(COS(N)(=O)=O)OC(C)(C)O[C@@H]23)O1 [compound 100, TOPIRAMATE] | 0.81 | 1.02 | 0.92 | 0.9 | 0.78 | 0.79 |
| Oc1c(Cl)cc(Cl)cc1Sc1cc(Cl)cc(Cl)c1O [compound 88, BITHIONOL] | 0.78 | 0.85 | 0.97 | 1.03 | 0.92 | 0.93 |
| CCCCOc1cc(C(=O)NCCN(CC)CC)c2ccccc2n1 [compound 76, DIBUCAINE] | 0.77 | 0.98 | 0.94 | 0.97 | 0.77 | 0.9 |
| CCc1cccc2c3c([nH]c12)C(CC)(CC(=O)O)OCC3 (stereo not drawn) [compound 26, ETODOLAC] | 0.99 | 1.55 | 1.13 | 1.11 | 0.98 | 0.99 |
| Nc1ccc(S(=O)(=O)c2ccc(N)cc2)cc1 [compound 120, DAPSONE] | 0.74 | 0.8 | 0.84 | 1.06 | 0.6 | 0.83 |
| NCCc1cnc[nH]1 [compound 121, HISTAMINE] | 1.08 | 1.23 | 1.09 | 1.22 | 1.15 | 1.02 |
| CCN(CCO)CCCC(C)Nc1ccnc2cc(Cl)ccc12 (stereo not drawn) [compound 72, HYDROXYCHLOROQUINE] | 0.85 | 0.87 | 1.01 | 1.08 | 0.72 | 0.9 |
| Cn1c(=O)c2[nH]c(Cl)nc2n(C)c1=O [compound 124, 8-chlorotheophylline] | 0.97 | 0.97 | 1.01 | 1.06 | 1.02 | 0.98 |
| O=C(O)C(O)[C@H](O)[C@@H](O)[C@H](O)[C@H](O)CO (stereo partly drawn) [compound 56, GLUCOHEPTONIC ACID] | 1.22 | 1.32 | 1.09 | 1.21 | 1.19 | 0.98 |
| Nc1nc(=S)c2[nH]cnc2[nH]1 [compound 122, THIOGUANINE] | 0.95 | 0.92 | 0.88 | 0.91 | 0.9 | 0.69 |
| CCN(CC)CCOc1ccc(/C(=C(\Cl)c2ccccc2)c2ccccc2)cc1 [compound 9, CLOMIPHENE] | 0.71 | 0.86 | 0.89 | 1.04 | 0.66 | 0.83 |
| Oc1ccc(Cl)cc1Cc1cc(Cl)ccc1O [compound 94, DICHLOROPHENE] | 0.78 | 0.87 | 0.89 | 0.94 | 0.85 | 0.79 |
| CC[N+]1(C)CCCC(OC(=O)C(O)(c2ccccc2)c2ccccc2)C1 (stereo not drawn) [compound 42, PIPENZOLATE] | 1.11 | 1.12 | 1.04 | 1.3 | 1.27 | 1.09 |
| Cc1cccc(C)c1NC(=O)C1CCCCN1C (stereo not drawn) [compound 2, MEPIVACAINE] | 0.77 | 0.83 | 0.93 | 1.01 | 0.88 | 0.9 |
